In patent publication US20210070748A1, “INHIBITORS OF BRUTONS TYROSINE KINASE” (Pharmacyclics LLC, priority 2015, published 2021):
pIC50: −log10 of the molar value.

Tests used:
Format in all cases: biochemical
JAK3 = target: T1, JAK3 (Homo sapiens, UniProt P52333); assay: Inhibition of a panel of kinases, in vitro HotSpot kinase assay: JAK3; conditions: D-compounds panel data; 1 μM ATP; read-out: IC50 JAK3
T1 sequence (P52333 1-1124): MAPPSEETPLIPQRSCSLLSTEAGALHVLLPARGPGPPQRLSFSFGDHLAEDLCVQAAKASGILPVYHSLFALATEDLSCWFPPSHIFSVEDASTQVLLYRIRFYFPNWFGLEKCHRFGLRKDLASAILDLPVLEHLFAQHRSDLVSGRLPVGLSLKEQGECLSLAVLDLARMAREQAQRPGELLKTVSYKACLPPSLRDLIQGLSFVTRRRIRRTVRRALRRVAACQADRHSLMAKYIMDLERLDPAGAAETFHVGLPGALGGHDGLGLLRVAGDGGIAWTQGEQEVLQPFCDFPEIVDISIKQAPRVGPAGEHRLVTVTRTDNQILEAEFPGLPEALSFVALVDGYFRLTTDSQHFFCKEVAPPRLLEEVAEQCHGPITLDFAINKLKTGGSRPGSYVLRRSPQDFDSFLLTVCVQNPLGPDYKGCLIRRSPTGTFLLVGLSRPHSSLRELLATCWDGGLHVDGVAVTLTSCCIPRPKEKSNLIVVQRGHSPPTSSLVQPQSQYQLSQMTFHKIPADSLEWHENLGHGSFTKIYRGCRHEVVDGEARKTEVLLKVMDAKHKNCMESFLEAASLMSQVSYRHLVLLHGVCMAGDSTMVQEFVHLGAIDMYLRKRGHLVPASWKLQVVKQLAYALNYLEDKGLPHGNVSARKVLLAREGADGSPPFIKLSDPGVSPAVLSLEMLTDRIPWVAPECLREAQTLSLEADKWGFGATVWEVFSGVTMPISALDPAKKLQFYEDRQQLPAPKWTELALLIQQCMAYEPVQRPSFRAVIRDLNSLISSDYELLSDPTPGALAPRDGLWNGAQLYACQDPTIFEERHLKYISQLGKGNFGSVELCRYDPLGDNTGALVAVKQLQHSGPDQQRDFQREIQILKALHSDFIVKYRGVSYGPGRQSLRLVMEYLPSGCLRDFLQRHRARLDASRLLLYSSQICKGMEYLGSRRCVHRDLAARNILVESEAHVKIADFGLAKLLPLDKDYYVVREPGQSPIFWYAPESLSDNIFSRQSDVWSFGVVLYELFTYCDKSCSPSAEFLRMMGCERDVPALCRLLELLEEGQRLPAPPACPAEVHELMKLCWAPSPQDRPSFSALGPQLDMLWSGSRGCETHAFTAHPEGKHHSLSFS

EGFR = EGFR (Homo sapiens, UniProt P00533); assay: Inhibition of a panel of kinases, in vitro HotSpot kinase assay: EGFR; conditions: D-compounds panel data; 1 μM ATP
Method: (§1) The degree of inhibition of a panel of kinases is determined using the in vitro HotSpot kinase assay (purified enzymes, ^33P-ATP, an appropriate substrate and 1 μM ATP).

SRC = SRC (Homo sapiens, UniProt P12931); assay: Inhibition of a panel of kinases, in vitro HotSpot kinase assay: SRC; conditions: D-compounds panel data; 1 μM ATP
Method: as §1

TEC = target: T2, TEC (Homo sapiens, UniProt P42680); assay: Inhibition of a panel of kinases, in vitro HotSpot kinase assay: TEC; conditions: D-compounds panel data; 1 μM ATP
T2 sequence (P42680 1-631): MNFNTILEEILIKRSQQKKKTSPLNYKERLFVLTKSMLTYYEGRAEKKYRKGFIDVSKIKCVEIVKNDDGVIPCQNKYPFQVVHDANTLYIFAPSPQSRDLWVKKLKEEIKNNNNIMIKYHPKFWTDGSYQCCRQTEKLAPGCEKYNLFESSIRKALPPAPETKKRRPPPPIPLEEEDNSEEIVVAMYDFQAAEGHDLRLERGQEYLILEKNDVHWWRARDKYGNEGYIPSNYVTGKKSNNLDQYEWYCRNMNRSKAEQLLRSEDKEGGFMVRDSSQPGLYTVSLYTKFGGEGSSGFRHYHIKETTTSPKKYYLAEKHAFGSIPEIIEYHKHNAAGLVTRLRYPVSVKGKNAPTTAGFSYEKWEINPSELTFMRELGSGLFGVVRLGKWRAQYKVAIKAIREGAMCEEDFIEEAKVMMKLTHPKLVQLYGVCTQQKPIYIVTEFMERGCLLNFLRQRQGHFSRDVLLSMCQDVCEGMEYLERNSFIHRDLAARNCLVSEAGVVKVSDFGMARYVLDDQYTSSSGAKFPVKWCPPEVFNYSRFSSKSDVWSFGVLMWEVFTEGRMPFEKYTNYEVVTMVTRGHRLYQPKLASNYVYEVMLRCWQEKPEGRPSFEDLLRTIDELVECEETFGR
Method: as §1

ITK = target: T3, ITK (Homo sapiens, UniProt Q08881); assay: Inhibition of a panel of kinases, in vitro HotSpot kinase assay: ITK; conditions: D-compounds panel data; 1 μM ATP
T3 sequence (Q08881 1-620): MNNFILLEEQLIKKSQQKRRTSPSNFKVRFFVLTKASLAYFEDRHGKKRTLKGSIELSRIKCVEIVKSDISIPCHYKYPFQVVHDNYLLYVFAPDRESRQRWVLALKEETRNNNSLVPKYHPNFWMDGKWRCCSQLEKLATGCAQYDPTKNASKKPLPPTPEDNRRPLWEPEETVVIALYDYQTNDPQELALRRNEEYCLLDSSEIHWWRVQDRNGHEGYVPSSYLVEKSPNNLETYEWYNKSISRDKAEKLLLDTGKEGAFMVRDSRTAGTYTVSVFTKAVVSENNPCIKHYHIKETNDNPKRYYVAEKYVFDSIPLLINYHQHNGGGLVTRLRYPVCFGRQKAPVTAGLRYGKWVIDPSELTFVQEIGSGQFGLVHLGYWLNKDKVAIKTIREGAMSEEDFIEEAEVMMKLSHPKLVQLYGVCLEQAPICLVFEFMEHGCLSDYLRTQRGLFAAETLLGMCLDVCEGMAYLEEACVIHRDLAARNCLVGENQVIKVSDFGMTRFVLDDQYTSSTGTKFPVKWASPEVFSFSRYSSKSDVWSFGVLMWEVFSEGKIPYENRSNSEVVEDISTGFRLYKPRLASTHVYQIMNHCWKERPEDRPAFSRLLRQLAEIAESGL
Method: as §1

Sequence of EGFR (P00533 25-1210): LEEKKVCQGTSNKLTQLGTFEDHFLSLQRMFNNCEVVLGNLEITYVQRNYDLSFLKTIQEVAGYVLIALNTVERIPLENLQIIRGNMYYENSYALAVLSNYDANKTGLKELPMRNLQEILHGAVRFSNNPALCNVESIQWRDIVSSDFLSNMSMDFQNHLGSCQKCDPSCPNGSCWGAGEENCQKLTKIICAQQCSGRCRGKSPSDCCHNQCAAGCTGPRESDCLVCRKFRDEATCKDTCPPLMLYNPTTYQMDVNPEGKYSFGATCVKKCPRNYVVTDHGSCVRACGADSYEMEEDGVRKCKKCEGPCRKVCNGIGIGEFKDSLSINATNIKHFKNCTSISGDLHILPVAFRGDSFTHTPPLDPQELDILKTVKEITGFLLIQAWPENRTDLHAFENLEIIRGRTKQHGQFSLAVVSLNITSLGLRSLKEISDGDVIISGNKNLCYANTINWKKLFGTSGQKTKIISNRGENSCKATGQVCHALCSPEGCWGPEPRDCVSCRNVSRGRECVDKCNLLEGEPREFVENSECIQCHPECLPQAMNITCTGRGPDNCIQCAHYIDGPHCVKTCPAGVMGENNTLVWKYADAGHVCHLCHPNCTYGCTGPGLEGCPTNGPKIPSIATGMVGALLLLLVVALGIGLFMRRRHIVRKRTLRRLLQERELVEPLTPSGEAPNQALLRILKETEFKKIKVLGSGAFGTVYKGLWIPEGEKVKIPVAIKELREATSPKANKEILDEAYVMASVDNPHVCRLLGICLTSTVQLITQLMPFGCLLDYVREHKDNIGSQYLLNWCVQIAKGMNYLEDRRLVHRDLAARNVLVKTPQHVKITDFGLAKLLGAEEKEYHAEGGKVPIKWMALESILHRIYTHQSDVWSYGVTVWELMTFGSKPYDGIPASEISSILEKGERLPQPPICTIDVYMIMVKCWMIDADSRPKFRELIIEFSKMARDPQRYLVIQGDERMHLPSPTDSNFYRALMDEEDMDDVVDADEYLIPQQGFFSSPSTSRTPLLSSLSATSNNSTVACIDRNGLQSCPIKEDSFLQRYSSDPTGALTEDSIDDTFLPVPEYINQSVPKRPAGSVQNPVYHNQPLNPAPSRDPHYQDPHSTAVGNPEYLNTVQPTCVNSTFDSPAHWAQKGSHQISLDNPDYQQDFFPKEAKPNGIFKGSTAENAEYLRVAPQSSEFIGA
Sequence of SRC (P12931 whole entry): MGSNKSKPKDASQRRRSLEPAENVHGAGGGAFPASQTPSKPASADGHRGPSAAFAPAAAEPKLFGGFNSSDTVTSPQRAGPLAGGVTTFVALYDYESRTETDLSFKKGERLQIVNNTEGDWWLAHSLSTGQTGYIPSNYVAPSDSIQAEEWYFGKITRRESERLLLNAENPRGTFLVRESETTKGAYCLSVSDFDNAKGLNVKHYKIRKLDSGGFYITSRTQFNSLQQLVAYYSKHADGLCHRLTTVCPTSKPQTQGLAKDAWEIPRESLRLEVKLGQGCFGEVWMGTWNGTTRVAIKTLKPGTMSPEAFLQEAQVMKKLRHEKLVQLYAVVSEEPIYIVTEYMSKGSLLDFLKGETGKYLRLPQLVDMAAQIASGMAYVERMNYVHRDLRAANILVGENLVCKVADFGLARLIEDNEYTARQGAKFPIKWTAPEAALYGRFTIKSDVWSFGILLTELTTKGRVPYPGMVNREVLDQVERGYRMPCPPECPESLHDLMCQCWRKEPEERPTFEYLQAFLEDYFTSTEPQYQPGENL

SMILES	pIC50 (JAK3)	pIC50 (EGFR)	pIC50 (SRC)	pIC50 (TEC)	pIC50 (ITK)
Cc1cc(Nc2nc(N3C[C@H](NC(=O)c4ccc(C5CC5)cc4F)CC[C@@H]3C)cnc2C(N)=O)sn1 [Example D-181, 5-[(2S,5R)-5-(4-cyclopropyl-2-fluorobenzamido)-2-methylpiperidin-1-yl]-3-[(3-methyl-1,2-thiazol-5-yl)amino]pyrazine-2-carboxamide]	6.00 to 7.00	6.00 to 7.00	7.00 to 8.00	7.00 to 8.00	5.00 to 6.00
C[C@@H]1[C@H](NC(=O)N(C)C)CCCN1c1cnc(C(N)=O)c(Nc2ccc(N3CCN(C4CCCC4)CC3)cc2)n1 [Example D-182, 3-{[4-(4-cyclopentylpiperazin-1-yl)phenyl]amino}-5-[(2R,3R)-3-[(dimethylcarbamoyl)amino]-2-methylpiperidin-1-yl]pyrazine-2-carboxamide]	6.00 to 7.00	6.00 to 7.00	7.00 to 8.00	6.00 to 7.00	6.00 to 7.00
C[C@@H]1[C@H](NC(=O)c2ccc(N(C)C)cc2)CCCN1c1cnc(C(N)=O)c(Nc2ccc(C3(C)CCN(C4CCCC4)CC3)cc2)n1 [Example D-183, 3-{[4-(1-cyclopentyl-4-methylpiperidin-4-yl)phenyl]amino}-5-[(2R,3R)-3-[4-(dimethylamino)benzamido]-2-methylpiperidin-1-yl]pyrazine-2-carboxamide]	6.00 to 7.00	6.00 to 7.00	≥ 8.00	7.00 to 8.00	7.00 to 8.00
Cn1cc(Nc2nc(N3CCC[C@@H](n4ccc5cc(C6CC6)ccc5c4=O)C3)cnc2C(N)=O)cn1 [Example D-184, 5-[(3R)-3-(6-cyclopropyl-1-oxo-1,2-dihydroisoquinolin-2-yl)piperidin-1-yl]-3-[(1-methyl-1H-pyrazol-4-yl)amino]pyrazine-2-carboxamide]	< 5.00	< 5.00	5.00 to 6.00	7.00 to 8.00	< 5.00
C[C@@H]1[C@H](NC(=O)c2ccc(C3CC3)cc2)CCCN1c1cnc(C(N)=O)c(Nc2cnn(C3CCN(C)CC3)c2)n1 [Example D-185, 5-[(2R,3R)-3-(4-cyclopropylbenzamido)-2-methylpiperidin-1-yl]-3-{[1-(1-methylpiperidin-4-yl)-1H-pyrazol-4-yl]amino}pyrazine-2-carboxamide]	5.00 to 6.00	6.00 to 7.00	7.00 to 8.00	7.00 to 8.00	6.00 to 7.00
Cc1cc(Nc2nc(N3CCC[C@@H](c4ncc(-c5ccc(C6CC6)cc5)[nH]4)[C@H]3C)cnc2C(N)=O)sn1 [Example D-186, 5-[(2R,3R)-3-[5-(4-cyclopropylphenyl)-1H-imidazol-2-yl]-2-methylpiperidin-1-yl]-3-[(3-methyl-1,2-thiazol-5-yl)amino]pyrazine-2-carboxamide]	5.00 to 6.00	5.00 to 6.00	6.00 to 7.00	6.00 to 7.00	< 5.00
C[C@@H]1[C@H](NC(=O)c2ccc(C3CC3)cc2)CCCN1c1cnc(C(N)=O)c(Nc2cnn(CCN(C)C)c2)n1 [Example D-187, 5-[(2R,3R)-3-(4-cyclopropylbenzamido)-2-methylpiperidin-1-yl]-3-({1-[2-(dimethylamino)ethyl]-1H-pyrazol-4-yl}amino)pyrazine-2-carboxamide]	5.00 to 6.00	5.00 to 6.00	6.00 to 7.00	6.00 to 7.00	5.00 to 6.00
C[C@@H]1[C@H](NC(=O)c2ccc(C3CC3)cn2)CCCN1c1cnc(C(N)=O)c(Nc2ccc(N3CCN(C)CC3)cc2)n1 [Example D-188, 5-[(2R,3R)-3-(5-cyclopropylpyridine-2-amido)-2-methylpiperidin-1-yl]-3-{[4-(4-methylpiperazin-1-yl)phenyl]amino}pyrazine-2-carboxamide]	5.00 to 6.00	6.00 to 7.00	7.00 to 8.00	7.00 to 8.00	6.00 to 7.00
Cn1cc(Nc2nc(N3C[C@@H](NC(=O)c4ccc(C5CC5)cc4)CC(F)(F)C3)cnc2C(N)=O)cn1 [Example D-189, 5-[(5S)-5-(4-cyclopropylbenzamido)-3,3-difluoropiperidin-1-yl]-3-[(1-methyl-1H-pyrazol-4-yl)amino]pyrazine-2-carboxamide]	5.00 to 6.00	5.00 to 6.00	< 5.00	5.00 to 6.00	< 5.00
Cn1cc(Nc2nc(N3CCC[C@@H](NC(=O)c4ccc(C5CC5)cc4)C3)cnc2C(N)=O)cn1 [Example D-191, 5-[(3R)-3-(4-cyclopropylbenzamido)piperidin-1-yl]-3-[(1-methyl-1H-pyrazol-4-yl)amino]pyrazine-2-carboxamide]	5.00 to 6.00	< 5.00	6.00 to 7.00	6.00 to 7.00	5.00 to 6.00
Cn1cc(Nc2nc(N3CCC(F)(F)[C@H](NC(=O)c4ccc(C5CC5)cc4)C3)cnc2C(N)=O)cn1 [Example D-192, 5-[(3R)-3-(4-cyclopropylbenzamido)-4,4-difluoropiperidin-1-yl]-3-[(1-methyl-1H-pyrazol-4-yl)amino]pyrazine-2-carboxamide]	5.00 to 6.00	< 5.00	5.00 to 6.00	5.00 to 6.00	5.00 to 6.00
Cn1cc(Nc2nc(N3CCC(F)(F)[C@@H](NC(=O)c4ccc(C5CC5)cc4)C3)cnc2C(N)=O)cn1 [Example D-193, 5-[(3S)-3-(4-cyclopropylbenzamido)-4,4-difluoropiperidin-1-yl]-3-[(1-methylpyrazol-4-yl)amino]pyrazine-2-carboxamide]	5.00 to 6.00	< 5.00	5.00 to 6.00	6.00 to 7.00	< 5.00
C[C@@H]1[C@H](NC(=O)c2ccc(C(C)(C)O)cc2)CCCN1c1cnc(C(N)=O)c(Nc2cnn(C)c2)n1 [Example D-194, 5-[(2R,3R)-3-[4-(2-hydroxypropan-2-yl)benzamido]-2-methylpiperidin-1-yl]-3-[(1-methyl-1H-pyrazol-4-yl)amino]pyrazine-2-carboxamide]	5.00 to 6.00	5.00 to 6.00	6.00 to 7.00	≥ 8.00	6.00 to 7.00
